Source: ChEMBL document CHEMBL5653615 (J Biol Chem, 2013)
Calls of active or inactive are those of the source. The rule behind the calls is not given here.

What was measured:
[1] = target: T1, Testis-specific serine/threonine-protein kinase 1 (Homo sapiens) (UniProt Q9BXA7); assay: Inhibition of human TSSK1 at 500 nM by HotSpot assay relative to control
T1 sequence (whole entry): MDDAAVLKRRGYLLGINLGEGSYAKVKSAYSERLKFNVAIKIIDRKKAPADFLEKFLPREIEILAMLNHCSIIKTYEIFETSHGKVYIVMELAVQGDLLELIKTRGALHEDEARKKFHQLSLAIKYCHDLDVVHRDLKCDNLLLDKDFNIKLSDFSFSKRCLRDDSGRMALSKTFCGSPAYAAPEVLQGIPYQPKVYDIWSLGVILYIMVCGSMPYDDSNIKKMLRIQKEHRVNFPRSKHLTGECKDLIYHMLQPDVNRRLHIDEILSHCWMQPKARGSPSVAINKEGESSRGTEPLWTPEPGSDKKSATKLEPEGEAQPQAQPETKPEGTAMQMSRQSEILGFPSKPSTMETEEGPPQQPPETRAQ

[2] = target: T2, Tyrosine-protein kinase ZAP-70 (Homo sapiens) (UniProt P43403); assay: Inhibition of human ZAP70 at 500 nM by HotSpot assay relative to control
T2 sequence (whole entry): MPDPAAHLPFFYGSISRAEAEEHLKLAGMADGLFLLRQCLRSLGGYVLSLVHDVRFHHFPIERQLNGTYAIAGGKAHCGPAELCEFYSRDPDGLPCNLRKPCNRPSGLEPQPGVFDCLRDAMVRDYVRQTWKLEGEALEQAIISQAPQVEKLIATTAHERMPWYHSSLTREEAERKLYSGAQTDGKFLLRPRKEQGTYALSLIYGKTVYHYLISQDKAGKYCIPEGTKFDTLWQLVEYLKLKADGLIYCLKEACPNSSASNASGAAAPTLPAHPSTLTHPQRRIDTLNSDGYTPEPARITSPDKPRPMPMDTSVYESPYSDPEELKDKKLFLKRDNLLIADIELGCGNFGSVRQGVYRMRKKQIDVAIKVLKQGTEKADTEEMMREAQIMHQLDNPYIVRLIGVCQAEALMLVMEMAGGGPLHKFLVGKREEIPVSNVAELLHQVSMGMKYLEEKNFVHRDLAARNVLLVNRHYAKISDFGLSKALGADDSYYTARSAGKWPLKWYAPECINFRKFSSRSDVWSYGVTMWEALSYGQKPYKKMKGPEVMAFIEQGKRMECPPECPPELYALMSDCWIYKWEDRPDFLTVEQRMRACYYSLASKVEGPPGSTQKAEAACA

[3] = target: T3, Serine/threonine-protein kinase NLK (Homo sapiens) (UniProt Q9UBE8); assay: Inhibition of human NLK at 500 nM by HotSpot assay relative to control
T3 sequence (whole entry): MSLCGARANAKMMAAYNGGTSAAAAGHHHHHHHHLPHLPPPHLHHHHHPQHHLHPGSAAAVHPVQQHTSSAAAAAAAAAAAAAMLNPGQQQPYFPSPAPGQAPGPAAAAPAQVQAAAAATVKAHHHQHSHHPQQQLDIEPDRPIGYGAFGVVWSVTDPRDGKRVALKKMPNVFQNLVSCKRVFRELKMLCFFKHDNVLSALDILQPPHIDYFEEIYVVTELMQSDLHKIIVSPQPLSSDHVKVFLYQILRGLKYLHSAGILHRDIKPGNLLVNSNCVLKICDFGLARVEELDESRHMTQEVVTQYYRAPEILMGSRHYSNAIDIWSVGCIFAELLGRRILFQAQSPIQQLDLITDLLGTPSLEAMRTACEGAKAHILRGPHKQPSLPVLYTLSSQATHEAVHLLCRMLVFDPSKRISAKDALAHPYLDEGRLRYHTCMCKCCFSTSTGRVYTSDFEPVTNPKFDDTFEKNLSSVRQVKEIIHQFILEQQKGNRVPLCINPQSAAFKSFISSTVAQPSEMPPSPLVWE

[4] = target: Dual specificity mitogen-activated protein kinase kinase 1 (Homo sapiens) (UniProt Q02750); assay: Inhibition of human MEK1 at 500 nM by HotSpot assay relative to control
[5] = Inhibition of unphosphorylated human Insulin receptor (978 to 1283 residues) C981S mutant kinase domain expressed in baculovirus infected Sf9 cells incubated for 1 hr by [gamma-33P]ATP assay
[6] = target: T4, cGMP-dependent protein kinase 1 (Homo sapiens) (UniProt Q13976); assay: Inhibition of human PKG1a at 500 nM by HotSpot assay relative to control
T4 sequence (whole entry): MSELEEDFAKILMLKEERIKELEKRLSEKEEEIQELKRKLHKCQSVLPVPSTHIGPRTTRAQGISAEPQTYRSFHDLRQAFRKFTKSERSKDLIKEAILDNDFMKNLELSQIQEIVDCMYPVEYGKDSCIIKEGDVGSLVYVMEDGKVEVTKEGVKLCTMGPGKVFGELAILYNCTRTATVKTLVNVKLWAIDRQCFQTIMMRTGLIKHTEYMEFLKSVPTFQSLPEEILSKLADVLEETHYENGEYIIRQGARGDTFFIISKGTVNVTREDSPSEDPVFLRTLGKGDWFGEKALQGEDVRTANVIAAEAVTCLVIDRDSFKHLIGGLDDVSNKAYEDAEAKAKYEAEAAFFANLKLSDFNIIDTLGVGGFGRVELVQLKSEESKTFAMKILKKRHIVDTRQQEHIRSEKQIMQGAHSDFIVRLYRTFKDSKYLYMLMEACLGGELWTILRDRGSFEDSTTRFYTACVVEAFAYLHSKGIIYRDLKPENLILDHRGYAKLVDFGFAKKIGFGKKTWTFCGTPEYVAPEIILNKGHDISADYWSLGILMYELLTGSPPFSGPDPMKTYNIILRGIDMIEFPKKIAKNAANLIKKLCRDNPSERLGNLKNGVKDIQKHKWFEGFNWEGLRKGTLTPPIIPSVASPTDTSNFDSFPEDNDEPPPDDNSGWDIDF

[7] = target: Ephrin type-A receptor 5 (Homo sapiens) (UniProt P54756); assay: Inhibition of human EPHA5 at 500 nM by HotSpot assay relative to control
Ephrin type-A receptor 5 (Homo sapiens), sequence (P54756 whole entry): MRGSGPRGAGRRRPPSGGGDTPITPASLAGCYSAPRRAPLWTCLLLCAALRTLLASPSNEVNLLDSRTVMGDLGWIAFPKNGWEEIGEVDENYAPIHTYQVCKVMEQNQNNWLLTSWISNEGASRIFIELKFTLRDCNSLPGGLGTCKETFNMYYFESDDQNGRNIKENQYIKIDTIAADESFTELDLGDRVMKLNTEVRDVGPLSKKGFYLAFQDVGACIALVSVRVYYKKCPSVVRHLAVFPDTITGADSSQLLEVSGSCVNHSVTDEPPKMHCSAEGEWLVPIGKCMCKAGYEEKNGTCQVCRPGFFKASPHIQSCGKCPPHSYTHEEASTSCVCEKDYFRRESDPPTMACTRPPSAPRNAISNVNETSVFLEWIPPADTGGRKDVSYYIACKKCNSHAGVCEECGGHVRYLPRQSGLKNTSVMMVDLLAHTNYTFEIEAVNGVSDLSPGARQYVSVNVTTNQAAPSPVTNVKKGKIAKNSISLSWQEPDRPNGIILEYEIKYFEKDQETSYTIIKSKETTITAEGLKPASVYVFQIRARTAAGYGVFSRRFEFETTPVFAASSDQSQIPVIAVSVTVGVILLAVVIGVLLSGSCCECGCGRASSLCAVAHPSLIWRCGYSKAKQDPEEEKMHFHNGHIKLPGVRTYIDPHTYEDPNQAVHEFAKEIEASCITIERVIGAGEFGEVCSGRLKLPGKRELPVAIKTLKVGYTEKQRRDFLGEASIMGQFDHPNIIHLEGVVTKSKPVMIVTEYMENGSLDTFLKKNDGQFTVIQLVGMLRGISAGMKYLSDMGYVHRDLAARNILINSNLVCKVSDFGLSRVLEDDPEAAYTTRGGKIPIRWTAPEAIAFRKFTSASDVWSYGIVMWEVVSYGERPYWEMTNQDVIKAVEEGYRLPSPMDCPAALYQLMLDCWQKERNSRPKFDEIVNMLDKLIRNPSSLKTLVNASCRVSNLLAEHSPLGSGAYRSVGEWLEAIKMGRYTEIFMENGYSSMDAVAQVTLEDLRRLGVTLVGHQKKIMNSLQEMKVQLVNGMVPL

Dual specificity mitogen-activated protein kinase kinase 1 (Homo sapiens), sequence (Q02750 whole entry, the tested form may be a part): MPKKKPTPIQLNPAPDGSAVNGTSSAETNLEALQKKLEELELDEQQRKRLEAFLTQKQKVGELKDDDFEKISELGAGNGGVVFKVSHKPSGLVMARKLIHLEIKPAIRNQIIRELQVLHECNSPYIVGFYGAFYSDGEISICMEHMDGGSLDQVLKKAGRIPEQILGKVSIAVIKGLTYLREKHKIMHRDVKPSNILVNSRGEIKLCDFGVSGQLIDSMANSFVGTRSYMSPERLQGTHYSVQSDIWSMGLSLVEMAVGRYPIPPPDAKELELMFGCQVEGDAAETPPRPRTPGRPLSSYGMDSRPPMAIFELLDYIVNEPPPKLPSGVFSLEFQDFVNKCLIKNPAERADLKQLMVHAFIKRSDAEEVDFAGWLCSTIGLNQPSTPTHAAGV

| SMILES | inhibition [1] | inhibition [2] | inhibition [3] | inhibition [4] | inhibition [5] | inhibition [6] | inhibition [7] |
| --- | --- | --- | --- | --- | --- | --- | --- |
| Oc1n[nH]c2nnc(-c3c(-c4ccccc4)nn4ccccc34)cc12 | -0.04% | 5.7% | -0.83% | 5.15% | Active | -5.37% | -0.84% |
| Nc1n[nH]c2nnc(-c3c(-c4ccccc4)nn4ccccc34)cc12 | -1.56% | 9.86% | -2.21% | 5.65% | Active | 6.39% | -0.54% |
